We go through 21 compounds from US7858790B2, “Modulators of muscarinic receptors” (Vertex Pharmaceuticals Incorporated, priority 2006, dated 2010).

The target in one assay is T1, M1 muscarinic receptor (Homo sapiens, UniProt P11229).
T1 construct: expressed in transfected cells; host or cells: CHO (M1-CHO recombinant cell line)
T1 sequence (P11229 1-460): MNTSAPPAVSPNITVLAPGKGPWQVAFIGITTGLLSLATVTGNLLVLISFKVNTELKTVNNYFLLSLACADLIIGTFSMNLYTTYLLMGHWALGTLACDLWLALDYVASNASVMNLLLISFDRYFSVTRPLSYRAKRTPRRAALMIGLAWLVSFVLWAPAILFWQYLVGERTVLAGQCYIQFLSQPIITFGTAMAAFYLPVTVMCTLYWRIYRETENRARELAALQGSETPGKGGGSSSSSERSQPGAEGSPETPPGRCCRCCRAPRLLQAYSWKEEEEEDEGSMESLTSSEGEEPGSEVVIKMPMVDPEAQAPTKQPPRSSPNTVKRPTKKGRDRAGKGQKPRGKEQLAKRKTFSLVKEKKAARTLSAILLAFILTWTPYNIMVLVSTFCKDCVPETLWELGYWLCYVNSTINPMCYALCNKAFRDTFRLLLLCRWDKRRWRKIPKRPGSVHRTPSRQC
As to the kind of experiment: Functional mobilization of intracellular calcium (FLIPR) in CHO cells expressing M1 muscarinic receptor. Format: cell-based. To be noted: for M1 Activity: CHO cells expressing M1, calcium mobilization; for Emax: CHO, 100% efficacy is the maximum response obtained with the Carbachol control. The method in brief: (§1)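 CHO cells loaded with Fluo-3 or Calcium 3 dye in pH 7.4 bath buffer with 1 mM probenecid, 0.5% DMSO. Agonist mode: compound added directly; inhibition mode: 15 min pre-incubation, then carbachol at EC80 (or co-application). Fluorescence recorded 60 s on FLIPR; efficacy relative to carbachol maximum.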
(In general: A change in cytosolic calcium serves as a functional read-out for many receptors and channels.)

For a further assay, the target named is T2, M4 muscarinic receptor (Homo sapiens, UniProt P08173).
T2 construct: expressed in transfected cells; host or cells: CHO (M4-CHO recombinant cell line)
T2 sequence (P08173 1-479): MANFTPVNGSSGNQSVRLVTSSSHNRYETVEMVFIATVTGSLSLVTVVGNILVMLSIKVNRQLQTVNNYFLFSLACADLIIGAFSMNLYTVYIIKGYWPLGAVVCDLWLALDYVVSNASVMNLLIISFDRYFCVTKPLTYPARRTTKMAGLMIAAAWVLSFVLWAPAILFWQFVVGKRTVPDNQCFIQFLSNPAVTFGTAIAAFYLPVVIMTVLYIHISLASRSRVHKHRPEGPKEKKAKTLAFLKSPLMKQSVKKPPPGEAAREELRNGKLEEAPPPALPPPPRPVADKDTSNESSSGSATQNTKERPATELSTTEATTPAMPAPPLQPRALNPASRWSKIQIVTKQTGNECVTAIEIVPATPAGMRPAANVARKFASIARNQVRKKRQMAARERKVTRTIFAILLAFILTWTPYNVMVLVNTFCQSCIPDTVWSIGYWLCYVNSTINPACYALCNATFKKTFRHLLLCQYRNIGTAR
As to the kind of experiment: Functional mobilization of intracellular calcium (FLIPR) in CHO cells expressing M4 muscarinic receptor. The assay is classed as cell-based. To be noted: for M4 Activity: CHO cells expressing M4, calcium mobilization; for Emax: CHO, 100% efficacy is the maximum response obtained with the Carbachol control. The method in brief:
as §1

For `CN(C)C(=O)C1=CC2(CCN(CCC(C)(C)C)CC2)c2ccccc21` [compound 56], on M1 muscarinic receptor, the “M1 Activity” value is “+ (activity was measured to be greater than 10.0 μM)” and the Emax (as a rule, the maximal effect, on the per cent scale that the assay sets) was less than 25%. Further, on M4 muscarinic receptor, the “M4 Activity” value was “+++ (activity was measured to be less than 2.0 μM)” and the Emax was 25 to 100%.

Regarding `CCC(CC)NC(=O)C1=CC2(CCNCC2)c2ccccc21` [compound 57], on M1 muscarinic receptor, the “M1 Activity” value is recorded as “+ (activity was measured to be greater than 10.0 μM)” and the Emax is less than 25%. Besides, on M4 muscarinic receptor, the “M4 Activity” value was “+ (activity was measured to be greater than 10.0 μM)” and the Emax was less than 25%.

As for `CNC(=O)C1=CC2(CCN(C3CCCCC3)CC2)c2ccccc21` [compound 58], at M1 muscarinic receptor, the “M1 Activity” value was “+ (activity was measured to be greater than 10.0 μM)” and the Emax lay in the range of 25 to 100%. For the same compound, at M4 muscarinic receptor, the “M4 Activity” value is “+++ (activity was measured to be less than 2.0 μM)” and the Emax is 25 to 100%.

With `CN(C)C(=O)C1=CC2(CCN(CC3CCCCC3)CC2)c2ccccc21` [compound 59], on M1 muscarinic receptor, the “M1 Activity” value is listed as “+ (activity was measured to be greater than 10.0 μM)” and the Emax is less than 25%. On M4 muscarinic receptor, the “M4 Activity” value is listed as “+++ (activity was measured to be less than 2.0 μM)” and the Emax is 25 to 100%.

On to `CCOC(=O)N1CCC(N2CCC3(C=C(C(=O)N(C)C)c4ccccc43)CC2)CC1` [compound 60], for which, on M1 muscarinic receptor, the “M1 Activity” value is “+++ (activity was measured to be less than 2.0 μM)” and the Emax lay in the range of 25 to 100%. In addition, on M4 muscarinic receptor, the “M4 Activity” value was “+++ (activity was measured to be less than 2.0 μM)” and the Emax was 25 to 100%.

As for `CN(C)C(=O)C1=CC2(CCN(C3CCCCC3)CC2)c2ccccc21` [compound 61], on M1 muscarinic receptor, the “M1 Activity” value is on record as “+ (activity was measured to be greater than 10.0 μM)” and the Emax is less than 25%. On M4 muscarinic receptor, the “M4 Activity” value is given as “+++ (activity was measured to be less than 2.0 μM)” and the Emax was 25 to 100%.

As for `CCOC(=O)C1=CC2(CCN(CCC(C)(C)C)CC2)c2ccccc21` [compound 62], at M1 muscarinic receptor, the “M1 Activity” value is “+ (activity was measured to be greater than 10.0 μM)” and the Emax was in the range of 25 to 100%. On M4 muscarinic receptor, the “M4 Activity” value is reported as “+++ (activity was measured to be less than 2.0 μM)” and the Emax was in the range of 25 to 100%.

In the case of `CCOC(=O)N1CCC(N2CCC3(CC=C(C#N)c4ccccc43)CC2)CC1` [compound 63], at M1 muscarinic receptor, the “M1 Activity” value is “+++ (activity was measured to be less than 2.0 μM)” and the Emax is 25 to 100%. For the same compound, on M4 muscarinic receptor, the “M4 Activity” value is given as “+++ (activity was measured to be less than 2.0 μM)” and the Emax lay in the range of 25 to 100%.

With `CN(C)C(=O)C1=CC2(CCN(C3C[C@@H]4CC[C@@H]3C4)CC2)c2ccccc21` (stereo partly drawn) [compound 64], on M1 muscarinic receptor, the “M1 Activity” value was “+ (activity was measured to be greater than 10.0 μM)” and the Emax was less than 25%. In addition, on M4 muscarinic receptor, the “M4 Activity” value is on record as “+++ (activity was measured to be less than 2.0 μM)” and the Emax was 25 to 100%.

With `CCOC(=O)N1CCC(N2CCC3(C=C(C(=O)NC)c4ccccc43)CC2)CC1` [compound 65], at M1 muscarinic receptor, the “M1 Activity” value was “+++ (activity was measured to be less than 2.0 μM)” and the Emax was 25 to 100%. Further, at M4 muscarinic receptor, the “M4 Activity” value is recorded as “+++ (activity was measured to be less than 2.0 μM)” and the Emax fell in the range of 25 to 100%.

With `CC(C)NC(=O)C1=CC2(CCN(CC3CC4C=CC3C4)CC2)c2ccccc21` (stereo not drawn) [compound 66], on M1 muscarinic receptor, the “M1 Activity” value is reported as “+ (activity was measured to be greater than 10.0 μM)” and the Emax was less than 25%. In addition, at M4 muscarinic receptor, the “M4 Activity” value is “+++ (activity was measured to be less than 2.0 μM)” and the maximal effect (Emax) lay in the range of 25 to 100%.

As for `CN(C)C(=O)C1=CC2(CCN(CC3CC4C=CC3C4)CC2)c2ccccc21` (stereo not drawn) [compound 67], at M1 muscarinic receptor, the “M1 Activity” value was “+ (activity was measured to be greater than 10.0 μM)” and the Emax was in the range of 25 to 100%. For the same compound, at M4 muscarinic receptor, the “M4 Activity” value is given as “+++ (activity was measured to be less than 2.0 μM)” and the Emax is 25 to 100%.

As for `CNC(=O)C1=CC2(CCN(CC3CC4C=CC3C4)CC2)c2ccccc21` (stereo not drawn) [compound 69], at M1 muscarinic receptor, the “M1 Activity” value is “+++ (activity was measured to be less than 2.0 μM)” and the Emax lay within 25 to 100%. Besides, at M4 muscarinic receptor, the “M4 Activity” value was “+++ (activity was measured to be less than 2.0 μM)” and the maximal effect (Emax) was in the range of 25 to 100%.

As to `CC(C)NC(=O)C1=CC2(CCN(CCC(C)(C)C)CC2)c2ccccc21` [compound 70], at M1 muscarinic receptor, the “M1 Activity” value is “+ (activity was measured to be greater than 10.0 μM)” and the Emax was 25 to 100%. Further, at M4 muscarinic receptor, the “M4 Activity” value is “+ (activity was measured to be greater than 10.0 μM)” and the Emax lay in the range of 25 to 100%.

`CCC(CC)NC(=O)C1=CC2(CCN(C3CCN(C(=O)OC)CC3)CC2)c2ccccc21` [compound 71]: at M1 muscarinic receptor, the “M1 Activity” value is on record as “+ (activity was measured to be greater than 10.0 μM)” and the Emax was less than 25%. At M4 muscarinic receptor, the “M4 Activity” value is “+++ (activity was measured to be less than 2.0 μM)” and the Emax is 25 to 100%.

As for `CCOC(=O)N1CCC(N2CCC3(CC=C(C(=O)NC(C)C)c4ccccc43)CC2)CC1` [compound 72], at M1 muscarinic receptor, the “M1 Activity” value is reported as “+++ (activity was measured to be less than 2.0 μM)” and the maximal effect (Emax) lay within 25 to 100%. On M4 muscarinic receptor, the “M4 Activity” value is reported as “+++ (activity was measured to be less than 2.0 μM)” and the Emax lay in the range of 25 to 100%.

For the compound `CCC(CC)NC(=O)C1=CC2(CCN(C3CCCCC3)CC2)c2ccccc21` [compound 73], on M1 muscarinic receptor, the “M1 Activity” value is “+ (activity was measured to be greater than 10.0 μM)” and the Emax is less than 25%. Besides, on M4 muscarinic receptor, the “M4 Activity” value is recorded as “++ (activity was measured to be from 2.0 μM to 10.0 μM)” and the Emax lay within 25 to 100%.

For the compound `CN(C)C(=O)C1=CCC2(CCN(C3C[C@@H]4CC[C@@H]3C4)CC2)c2ccccc21` (stereo partly drawn) [compound 74], on M1 muscarinic receptor, the “M1 Activity” value was “+ (activity was measured to be greater than 10.0 μM)” and the Emax was less than 25%. At M4 muscarinic receptor, the “M4 Activity” value is reported as “++ (activity was measured to be from 2.0 μM to 10.0 μM)” and the Emax is less than 25%.

Regarding `CCOC(=O)N1C2CCC1CC(N1CCC3(C=C(C(=O)NC(CC)CC)c4ccccc43)CC1)C2` (stereo not drawn) [compound 75], at M1 muscarinic receptor, the “M1 Activity” value is listed as “++ (activity was measured to be from 2.0 μM to 10.0 μM)” and the Emax is 25 to 100%. On M4 muscarinic receptor, the “M4 Activity” value was “+++ (activity was measured to be less than 2.0 μM)” and the Emax was 25 to 100%.

In the case of `CCC(CC)NC(=O)C1=CC2(CCN(CCC3CCSCC3)CC2)c2ccccc21` [compound 76], on M1 muscarinic receptor, the “M1 Activity” value was “+ (activity was measured to be greater than 10.0 μM)” and the Emax is less than 25%. For the same compound, at M4 muscarinic receptor, the “M4 Activity” value is reported as “+ (activity was measured to be greater than 10.0 μM)” and the Emax is less than 25%.

Consider `CC(C)(C)CCN1CCC2(C=C(C(=O)NC3CCCC3)c3ccccc32)CC1` [compound 77], for which, on M1 muscarinic receptor, the “M1 Activity” value is on record as “+ (activity was measured to be greater than 10.0 μM)” and the Emax fell in the range of 25 to 100%. Moreover, at M4 muscarinic receptor, the “M4 Activity” value is given as “+ (activity was measured to be greater than 10.0 μM)” and the Emax is less than 25%.
